Test results reported in USRE47302E1 (ONYX THERAPEUTICS INC., priority 2013, dated 2019).
Converted amounts (≈) assume the structure as drawn.

Legend:
physchem = settings: pH 7, aqueous buffer
[1] = molecular target: T1, proteasome subunit β5 (beta5) (Homo sapiens, UniProt P28074); assay: Proteasome active-site ELISA (ProCISE), beta5, MOLT-4 lysate; assay type: biochemical; settings: MOLT4 lysate, human, 1 h continuous treatment, 25° C.
T1 construct: Lysate from the human acute lymphoblastic leukemia cell line, MOLT-4; endogenous in cells; host or cells: MOLT-4
In short: (§1)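 MOLT-4 cell lysate treated 1 h at 25 °C with compound; probe-bound subunits denatured, pulled down on streptavidin beads and detected with subunit-specific antibodies plus HRP chemiluminescence.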

[2] = molecular target: T2, immunoproteasome subunit LMP7 (Homo sapiens, UniProt P28062); assay: Proteasome active-site ELISA (ProCISE), LMP7, MOLT-4 lysate; assay type: biochemical; settings: MOLT4 lysate, 1 h continuous treatment, 25° C.
T2 construct: Lysate from the human acute lymphoblastic leukemia cell line, MOLT-4; endogenous in cells; host or cells: MOLT-4
In short: as §1

[3] = molecular target: human 20S immunoproteasome (i20S) (Homo sapiens, UniProt P28062); assay: 20S proteasome assay, chymotrypsin-like activity (succinyl-Leu-Leu-Val-Tyr-AMC), i20S; assay type: biochemical; settings: LLVY substrate, 1 h continuous
Excerpt: (§2) Assay buffer consisted of TE buffer [20 mmol/L Tris (pH 8.0), 0.5 mmol/L EDTA] with (20S) or without (cell lysate) 0.03% SDS. Reactions were initiated by enzyme or lysate addition and monitored for AMC product formation at 27jC with a plate-based spectofluorometer (Tecan).

Solubility pH 7 = settings: pH 7, aqueous buffer
[4] = molecular target: human constitutive 20S proteasome (c20S) (Homo sapiens, UniProt P28074); assay: 20S proteasome assay, chymotrypsin-like activity (succinyl-Leu-Leu-Val-Tyr-AMC), c20S; assay type: biochemical; settings: LLVY substrate, 1 h continuous
Excerpt: as §2

Row | Structure (SMILES) | IC50 [1] | IC50 [2] | IC50 [3] | solubility (Solubility pH 7) | IC50 [4] | solubility (physchem)
1 | COc1ccc(C[C@H](NC(=O)[C@H](C)NC(=O)CN2CC3CC(C2)O3)C(=O)N[C@@H](CC2CCCC2)C(=O)[C@@]2(C)CO2)cc1 [Compound C-1229, (2S)-2-((2S)-2-(2-(6-oxa-3-azabicyclo[3.1.1]heptan-3-yl)acetamido)propanamido)-N-((S)-3-cyclopentyl-1-((R)-2-methyloxiran-2-yl)-1-oxopropan-2-yl)-3-(4-methoxyphenyl)propanamide] | – | – | – | – | – | 3620 µg/mL (≈ 6200 µM)
2 | COc1ccc(C[C@H](NC(=O)[C@@H](C)NC(=O)C2COC2)C(=O)N[C@@H](CC2=CCCC2)C(=O)[C@@]2(C)CO2)cc1 [Compound C-1055, N-((R)-1-(((S)-1-(((S)-3-(cyclopent-1-en-1-yl)-1-((R)-2-methyloxiran-2-yl)-1-oxopropan-2-yl)amino)-3-(4-methoxyphenyl)-1-oxopropan-2-yl)amino)-1-oxopropan-2-yl)oxetane-3-carboxamide] | 7150 nM | 953 nM | 149 nM | 1300 µg/mL (≈ 2460 µM) | 4440 nM | –
3 | COc1ccc(C[C@H](NC(=O)[C@@H](C)NC(=O)C2CC(=O)C2)C(=O)N[C@@H](CC2CCCC2)C(=O)[C@@]2(C)CO2)cc1 [Compound C-1029, N-((R)-1-(((S)-1-(((S)-3-cyclopentyl-1-((R)-2-methyloxiran-2-yl)-1-oxopropan-2-yl)amino)-3-(4-methoxyphenyl)-1-oxopropan-2-yl)amino)-1-oxopropan-2-yl)-3-oxocyclobutanecarboxamide] | 3790 nM | 303 nM | 214 nM | 822 µg/mL (≈ 1520 µM) | 4110 nM | –

Continued, in another order:

Row | IC50 [1] | IC50 [2] | IC50 [3] | solubility (Solubility pH 7) | IC50 [4] | Structure (SMILES) | solubility (physchem)
4 | 388 nM | 38.4 nM | 20.2 nM | 140 µg/mL (≈ 245 µM) | 232 nM | COc1ccc(C[C@H](NC(=O)[C@@H](C)NC(=O)C2CCOCC2)C(=O)N[C@@H](CC2=CCCC2)C(=O)[C@@]2(C)CO2)cc1O [Compound C-1062, N-((R)-1-(((S)-1-(((S)-3-(cyclopent-1-en-1-yl)-1-((R)-2-methyloxiran-2-yl)-1-oxopropan-2-yl)amino)-3-(3-hydroxy-4-methoxyphenyl)-1-oxopropan-2-yl)amino)-1-oxopropan-2-yl)tetrahydro-2H-pyran-4-carboxamide] | –
5 | 1280 nM | 167 nM | 92.5 nM | 1720 µg/mL (≈ 2940 µM) | 470 nM | C[C@H](NC(=O)CN1CCOCC1)C(=O)N[C@@H](Cc1ccc2c(c1)OCO2)C(=O)N[C@@H](CC1CCCC1)C(=O)[C@@]1(C)CO1 [Compound C-1012, (S)-3-(benzo[d][1,3]dioxol-5-yl)-N-((S)-3-cyclopentyl-1-((R)-2-methyloxiran-2-yl)-1-oxopropan-2-yl)-2-((S)-2-(2-morpholinoacetamido)propanamido)propanamide] | –
6 | 595 nM | 43.4 nM | 27.9 nM | 1270 µg/mL (≈ 2130 µM) | 1610 nM | COc1ccc(C[C@H](NC(=O)[C@H](C)NC(=O)CN2CCOCC2)C(=O)N[C@@H](Cc2ccc(O)cc2)C(=O)[C@@]2(C)CO2)cc1 [Compound C-1162, (S)-N-((S)-3-(4-hydroxyphenyl)-1-((R)-2-methyloxiran-2-yl)-1-oxopropan-2-yl)-3-(4-methoxyphenyl)-2-((S)-2-(2-morpholinoacetamido)propanamido)propanamide] | –
